Here are results for 21 compounds from ChEMBL document CHEMBL1909046, “DrugMatrix in vitro pharmacology data”.

The target of assay [1] is T1, Alpha-1D adrenergic receptor (Homo sapiens, UniProt P25100). Note: in other assays of this panel Not Active means under 50% inhibition at 10 µM.
T1 sequence (P25100 whole entry): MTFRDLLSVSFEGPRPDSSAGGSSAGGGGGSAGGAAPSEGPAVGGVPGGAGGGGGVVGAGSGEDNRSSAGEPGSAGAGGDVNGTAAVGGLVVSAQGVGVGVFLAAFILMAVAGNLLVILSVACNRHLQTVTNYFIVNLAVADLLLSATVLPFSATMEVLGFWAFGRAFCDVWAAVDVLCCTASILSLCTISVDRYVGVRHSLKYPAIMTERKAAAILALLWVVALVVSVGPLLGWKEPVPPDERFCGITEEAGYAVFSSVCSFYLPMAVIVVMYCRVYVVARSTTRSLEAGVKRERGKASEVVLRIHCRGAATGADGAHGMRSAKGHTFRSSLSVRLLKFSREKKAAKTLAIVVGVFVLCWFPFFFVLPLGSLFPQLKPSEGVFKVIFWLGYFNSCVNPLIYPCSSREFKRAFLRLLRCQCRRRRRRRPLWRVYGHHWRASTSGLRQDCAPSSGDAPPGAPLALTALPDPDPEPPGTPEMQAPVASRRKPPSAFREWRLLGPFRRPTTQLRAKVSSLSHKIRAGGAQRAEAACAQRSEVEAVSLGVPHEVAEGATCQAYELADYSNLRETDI
The format is cell membranes, HEK293, Membrane. The conditions noted are these: for Ki: read-out: Ki.

The target of assay [2] is T2, Alpha-2A adrenergic receptor (Homo sapiens, UniProt P08913). Note: in other assays of this panel Not Active means under 50% inhibition at 10 µM.
T2 sequence (P08913 whole entry): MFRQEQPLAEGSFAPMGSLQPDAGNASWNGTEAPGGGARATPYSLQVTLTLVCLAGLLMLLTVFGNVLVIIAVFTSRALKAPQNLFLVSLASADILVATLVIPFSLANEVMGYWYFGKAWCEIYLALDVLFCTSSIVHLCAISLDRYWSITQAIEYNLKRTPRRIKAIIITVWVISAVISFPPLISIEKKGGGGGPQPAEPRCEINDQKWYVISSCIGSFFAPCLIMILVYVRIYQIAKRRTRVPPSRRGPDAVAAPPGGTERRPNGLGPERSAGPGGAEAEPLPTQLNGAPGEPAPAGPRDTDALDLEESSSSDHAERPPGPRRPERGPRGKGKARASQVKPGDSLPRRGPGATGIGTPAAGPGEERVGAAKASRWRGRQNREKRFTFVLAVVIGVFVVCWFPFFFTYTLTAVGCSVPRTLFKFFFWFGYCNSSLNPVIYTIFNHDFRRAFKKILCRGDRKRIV
Type of assay: cell membranes, Sf9, Membrane. The following applies: for Ki: read-out: Ki.

The nature of assay [3]: DRUGMATRIX: Atrial Natriuretic Factor (ANF) radioligand binding (ligand: [125I] ANF (rat)). The conditions noted are these: Not Active = under 50% inhibition at 10 µM. Type of assay: cell membranes, Cavia porcellus, Dunkin-Hartley, Adrenal gland, Membrane.
Assay [4] can be described thus: DRUGMATRIX: GABAA, Flunitrazepam, Central radioligand binding (ligand: [3H] Flunitrazepam). Type of assay: cell membranes, Rattus norvegicus, Wistar, Brain, Membrane. The conditions noted are these: Not Active = under 50% inhibition at 10 µM.
The target of assay [5] is Platelet-activating factor receptor (Homo sapiens, UniProt P25105). The format is tissue-based. Note: in other assays of this panel Not Active means under 50% inhibition at 10 µM.
In a further assay the target is T3, Glucocorticoid receptor (Homo sapiens, UniProt P04150). Note: in other assays of this panel Not Active means under 50% inhibition at 10 µM.
T3 sequence (P04150 whole entry): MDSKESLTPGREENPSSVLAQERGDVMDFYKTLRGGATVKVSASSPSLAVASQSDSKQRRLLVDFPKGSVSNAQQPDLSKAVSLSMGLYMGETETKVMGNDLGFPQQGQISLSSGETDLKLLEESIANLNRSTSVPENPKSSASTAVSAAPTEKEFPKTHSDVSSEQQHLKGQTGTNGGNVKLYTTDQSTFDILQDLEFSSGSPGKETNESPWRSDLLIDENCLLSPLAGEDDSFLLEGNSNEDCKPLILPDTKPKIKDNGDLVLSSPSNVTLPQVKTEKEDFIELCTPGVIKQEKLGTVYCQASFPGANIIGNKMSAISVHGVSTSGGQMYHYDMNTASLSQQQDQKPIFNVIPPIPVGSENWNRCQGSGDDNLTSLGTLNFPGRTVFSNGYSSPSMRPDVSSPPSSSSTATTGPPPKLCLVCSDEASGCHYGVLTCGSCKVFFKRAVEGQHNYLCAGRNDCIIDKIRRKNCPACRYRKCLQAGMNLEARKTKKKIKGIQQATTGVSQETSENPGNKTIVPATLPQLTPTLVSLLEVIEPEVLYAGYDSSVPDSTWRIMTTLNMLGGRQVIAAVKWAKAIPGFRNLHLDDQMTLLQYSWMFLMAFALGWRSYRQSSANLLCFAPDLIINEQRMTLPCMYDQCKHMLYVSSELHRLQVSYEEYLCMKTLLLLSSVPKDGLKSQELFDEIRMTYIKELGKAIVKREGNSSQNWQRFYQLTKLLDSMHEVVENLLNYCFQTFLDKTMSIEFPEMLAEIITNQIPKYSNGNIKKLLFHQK
The conditions noted are these: hela s3.

Sequence of Platelet-activating factor receptor (P25105 whole entry): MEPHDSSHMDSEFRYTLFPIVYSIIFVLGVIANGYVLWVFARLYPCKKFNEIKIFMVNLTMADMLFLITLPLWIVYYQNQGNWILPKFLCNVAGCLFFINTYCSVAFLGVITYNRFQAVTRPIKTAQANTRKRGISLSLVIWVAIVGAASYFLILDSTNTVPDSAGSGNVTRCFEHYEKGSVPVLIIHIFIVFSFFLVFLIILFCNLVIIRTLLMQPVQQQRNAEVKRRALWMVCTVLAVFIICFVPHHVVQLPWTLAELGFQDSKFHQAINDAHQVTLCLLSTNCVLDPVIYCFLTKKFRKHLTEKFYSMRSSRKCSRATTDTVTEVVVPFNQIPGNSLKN

`Cc1c(C)c2c(c(C)c1O)CCC(C)(COc1ccc(CC3SC(=O)NC3=O)cc1)O2` (configuration not stated) [TROGLITAZONE]: the IC50 entry in assay [1] (hek293), in assay [2] (sf9), in assay [3], in assay [4] and in assay [5] was “Not Active” throughout. In addition, the Ki entry in assay [3] and in assay [4] was “Not Active” throughout.

With `c1ccc([C@H]2CN3CCSC3=N2)cc1` [LEVAMISOLE], the IC50 result in assay [1] (hek293), in assay [2] (sf9), in assay [3], in assay [4] and in assay [5] was “Not Active” throughout. For the same compound, the Ki entry (in assay [3]; in assay [4]; at Glucocorticoid receptor) was “Not Active” in each case.

Turning to `NS(=O)(=O)c1cc2c(cc1Cl)NC(C(Cl)Cl)NS2(=O)=O` (configuration not stated) [TRICHLORMETHIAZIDE], the IC50 result in assay [1] (hek293), in assay [2] (sf9), in assay [3], in assay [4] and in assay [5] was “Not Active” in each case. For the same compound, the Ki result in assay [3] and in assay [4] was “Not Active” in each case.

On to `N#CC(C#N)=Cc1ccc(O)c(O)c1` [TYRPHOSTIN 23], for which the IC50 entry in assay [1] (hek293), in assay [2] (sf9), in assay [3], in assay [4] and in assay [5] was “Not Active” each time. For the same compound, the Ki result in assay [3] and in assay [4] was “Not Active” throughout.

Regarding `OCCN(CCO)c1nc(N2CCCCC2)c2nc(N(CCO)CCO)nc(N3CCCCC3)c2n1` [DIPYRIDAMOLE], the IC50 result in assay [1] (hek293) is “Not Active”; in assay [2] (sf9), “Not Active”; in assay [3] it was “Not Active”; in assay [4] (read-out: IC50), 382 nM; in assay [5] it was “Not Active”. For the same compound, the Ki result in assay [3] was “Not Active”; in assay [4] (read-out: Ki) it was 311 nM.

Turning to `Nc1c2c(nc3ccccc13)CCCC2` [TACRINE], the IC50 entry in assay [1] (hek293), in assay [2] (sf9), in assay [3], in assay [4] and in assay [5] was “Not Active” each time. For the same compound, the Ki entry in assay [3] and in assay [4] was “Not Active” each time.

On to `Cn1ccnc1S` [METHIMAZOLE], for which the IC50 entry in assay [1] (hek293), in assay [2] (sf9), in assay [3], in assay [4] and in assay [5] was “Not Active” in each case. The Ki entry in assay [3] and in assay [4] was “Not Active” throughout.

As for `CC1(C)O[C@@H]2C[C@H]3[C@@H]4CCC5=CC(=O)C=C[C@]5(C)[C@@]4(F)[C@@H](O)C[C@]3(C)[C@]2(C(=O)CO)O1` [TRIAMCINOLONE ACETONIDE], the IC50 entry in assay [1] (hek293), in assay [2] (sf9), in assay [3], in assay [4] and in assay [5] was “Not Active” in each case. In addition, the Ki result in assay [3] and in assay [4] was “Not Active” throughout.

As to `NC[C@H]1CC[C@H](C(=O)O)CC1` [TRANEXAMIC ACID], the IC50 result in assay [1] (hek293), in assay [2] (sf9), in assay [3], in assay [4] and in assay [5] was “Not Active” throughout. Besides, the Ki result in assay [3] and in assay [4] was “Not Active” each time.

Consider `COc1c(C)c2c(c(O)c1C/C=C(\C)CCC(=O)O)C(=O)OC2` [MYCOPHENOLIC ACID], for which the IC50 entry in assay [1] (hek293), in assay [2] (sf9), in assay [3], in assay [4] and in assay [5] was “Not Active” in each case. In addition, the inhibition constant Ki result in assay [3] and in assay [4] was “Not Active” throughout.

Take `CC/C(=C(\c1ccccc1)c1ccc(OCCN(C)C)cc1)c1ccccc1` [TAMOXIFEN]: the IC50 in assay [1] (read-out: IC50) is 4.98 µM; in assay [2] (read-out: IC50), 1930 nM; in assay [5], “Not Active”; at Glucocorticoid receptor it was “Not Active”. Also, the inhibitory constant (Ki) was determined as 2450 nM in assay [1] and 726 nM in assay [2].

Take `CO[C@H]1/C=C/O[C@@]2(C)Oc3c(C)c(O)c4c(O)c(c(/C=N/N5CCN(C)CC5)c(O)c4c3C2=O)NC(=O)/C(C)=C\C=C\[C@H](C)[C@H](O)[C@@H](C)[C@@H](O)[C@@H](C)[C@H](OC(C)=O)[C@@H]1C` [RIFAMPIN]: the IC50 result in assay [1] (hek293), in assay [2] (sf9), in assay [3], in assay [4] and in assay [5] was “Not Active” throughout. Further, the Ki result in assay [3] and in assay [4] was “Not Active” throughout.

In the case of `O=NN(CCCl)C(=O)NC1CCCCC1` [LOMUSTINE], the IC50 entry in assay [1] (hek293), in assay [2] (sf9), in assay [3], in assay [4] and in assay [5] was “Not Active” in each case. The Ki entry in assay [3] and in assay [4] was “Not Active” each time.

Consider `CSc1ccc(/C=C2/C(C)=C(CC(=O)O)c3cc(F)ccc32)cc1` [SULINDAC SULFIDE], for which the IC50 result in assay [1] (hek293), in assay [2] (sf9), in assay [3], in assay [4] and in assay [5] was “Not Active” throughout. For the same compound, the Ki result in assay [3] and in assay [4] was “Not Active” throughout.

As to `Cc1noc(NS(=O)(=O)c2ccc(N)cc2)c1C` [SULFISOXAZOLE], the IC50 entry in assay [1] (hek293), in assay [2] (sf9), in assay [3], in assay [4] and in assay [5] was “Not Active” throughout. The Ki result in assay [3] and in assay [4] was “Not Active” throughout.

Turning to `CN1CCN(CCCN2c3ccccc3Sc3ccc(Cl)cc32)CC1` [PROCHLORPERAZINE], the IC50 in assay [1] (read-out: IC50) was 0.034 µM; in assay [5], “Not Active”; against Glucocorticoid receptor it was “Not Active”. In addition, in assay [1], the Ki turned out to be 16 nM.

For the compound `CC(=O)[C@@]1(O)CC[C@H]2[C@@H]3C[C@H](C)C4=CC(=O)CC[C@]4(C)[C@H]3CC[C@@]21C`, the IC50 result in assay [1] (hek293), in assay [2] (sf9), in assay [3], in assay [4] and in assay [5] was “Not Active” in each case. Moreover, the Ki entry in assay [3] and in assay [4] was “Not Active” throughout.

With `CC(C)N1CCN(c2ccc(OCC3COC(Cn4cncn4)(c4ccc(Cl)cc4Cl)O3)cc2)CC1` (configuration not stated) [TERCONAZOLE], the IC50 in assay [1] (read-out: IC50) is 14.4 µM; in assay [2] (read-out: IC50), 983 nM; in assay [4], “Not Active”; in assay [5] it was “Not Active”. Moreover, the Ki in assay [1] was 7070 nM; in assay [2], 369 nM; in assay [4] it was “Not Active”.

Take `Cc1nc2n(c(=O)c1CCN1CCC(c3noc4cc(F)ccc34)CC1)CCCC2` [RISPERIDONE]: the IC50 entry (in assay [5]; against Glucocorticoid receptor) was “Not Active” in each case.

With `CCCCc1oc2ccccc2c1C(=O)c1cc(I)c(OCCN(CC)CC)c(I)c1` [AMIODARONE], the IC50 result (in assay [1] (hek293); in assay [5]; on Glucocorticoid receptor) was “Not Active” throughout.

Consider `N[C@@H](Cc1cc(I)c(Oc2ccc(O)c(I)c2)c(I)c1)C(=O)O` [LIOTHYRONINE], for which the IC50 result (in assay [1] (hek293); in assay [2] (sf9); in assay [5]; on Glucocorticoid receptor) was “Not Active” each time.
